Experimental data: patent EP1282604B1, “SUBSTITUTED CAPROLACTAM CARBONATES AND ETHERS AND THEIR USE AS ANTI-TUMOR AGENTS” (Novartis AG, priority 2000, dated 2001)

Assays:
[1] = tested on: MDA-MB-435 tumor xenografts; assay: Human tumor xenograft growth inhibition in athymic nude mice; format: in vivo; details: 2 mg/kg iv, 3X/week for 3 weeks
Experimental: Utilizing this model, one can measure the ability of test compounds to inhibit the growth of human tumor xenografts growing subcutaneously (s.c.) in athymic nude mice. The histologic tumor type employed was MDA-MB-435 breast carcinoma for Ex.1 and 7 and A549 non-small cell lung carcinoma for Ex. 1-3.
MDA-MB-435 human breast carcinoma: Treatments were started 15 d post implantation (3 x 10^6 cells/mouse), when a mean tumor volume of approximately 45 mm^3 was reached. Ex.1 and 7 were administered iv at three times per week for 3 weeks (days 15, 17, 20, 22, 24, 27, 29, and 31), at 3.3, 10, and 33 µmol/kg. Doxorubicin was administered iv at 2 mg/kg using the same schedule. Each data point represents tumor growth (mean ± SEM), or body weight (mean), with an initial group size of n = 8, from a representative experiment performed twice. An asterisk (*) indicates p < 0.05 using a one-tailed Student's t-test.
Toxicity was monitored by recording average group body weights twice weekly, and by daily observation of general health. Efficacy was monitored by taking measurements of tumor length, width, and depth weekly using digital calipers coupled to automated data collectors. Mean tumor volume (MTV) at initiation of therapy was subtracted from final MTV in order to express the actual tumor growth during treatment (A MTV). Anti-tumor activity was expressed as %T/C (A MTV of treated group ÷ Δ MTV of control group X100%). Statistical significance was evaluated using a one-tailed Student's t-test (p<0.05).

[2] = tested on: A549 non-small cell lung carcinoma; assay: Anchorage Dependent Growth Monolayer Assay (ADGMA), MTS readout; format: cell-based, human; details: Homo sapiens, 72 h; 3-day exposure, A549 cells; read-out: IC50 values (average ± S.D.) A549
Source text: (§1) As indicated above, all of the compounds of formula I, and their corresponding pharmaceutically acceptable acid addition salts, are anti-tumor agents and are, therefore, useful in inhibiting the growth of various lymphomas, sarcomas, carcinomas, myelomas, and leukemia cell lines. […] This assay was adapted from the 60 cell line assay used by the National Cancer Institute (NCl) with the following modifications: 1) cell lines representative for the important tumor types, viz., MDA-MB-435 human breast, A549 non-small cell lung, H1299 lung, HCT-116 colon and PC-3 prostate carcinomas, and U2OS osteosarcomas were utilized; and 2) a tetrazolium derivative, viz., 3-(4,5-dimethylthiazol-2-yl)-5-(3-carboxymethoxyphenyl)-2-(4-sulfophenyl)-2H-tetrazolium, inner salt (MTS), was utilized to determine cell density.
(§2) The ADGMA compares the number of viable cells following a 3-day exposure to a test compound relative to a number of cells present at the time the test compound was added. […] The absorbance at 490 nm (A490) of the formazan derivative is proportional to the number of viable cells. The IC50 for a test compound is the concentration of compound required to reduce the final cell number to 50% of the final control cell number. If cell proliferation is inhibited, the assay further defines compounds as cytostatic (cell number after 3-day compound incubation >cell number at time of compound addition) or cytotoxic (cell number after 3-day compound incubation <cell number at time of compound addition).
(§3) The MDA-MB-435 human breast carcinoma and the A549 non-small cell lung carcinoma lines were obtained from the American Type Culture Collection (ATCC) and used between passages 4-20 following thawing. MDA-MB-435 human breast carcinoma and A549 non-small cell lung carcinoma cells were maintained and plated in DME/F12 medium containing 10% fetal bovine serum, 15 mM HEPES (pH=7.4), 100 units/mL penicillin, and 100 µg/mL streptomycin.
(§4) Cell lines are trypsinized and counted using a Coulter counter to determine plating densities. Cells are then plated in their respective maintenance media (100 µL/well) in 96 well plates at the following densities: MDA-MB-435 and U2OS, 3,000 cells/well; A549 and HCT-116, 700 cells/well; H1299, 1,000 cells/well; and PC-3, 2500 cells/well. The number of cells plates as determined in preliminary experiments, results in cell densities of 75-90% of confluency by 4 days after plating. Initial cell densities, assayed one day after plating, are roughly 0.15-0.20 absorbance units greater than the media blank. Ninety-six well plates are seeded on day 0 and the test compounds are added on day 1. A control plate is created for each cell line that receives media only in row A and cells in row B. One day following plating, test compounds are added (in a final volume of 100 µL) to the test plates. Control plates receive 10 µL MTS mixture (prepared fresh on day of addition to cell plates at a ratio of 10 µL of a 0.92 mg/mL solution of PMS to a 190 µL of a 2 mg/mL solution of MTS) and 100 µL media. A490 of control plates is read 4 h after MTS addition to determine initial cell density values for each cell line. Three days after addition of test compound, 10 µL/well of MTS mixture is added to the test plates and A490 is read 4 h later. A490 values for wells containing cells are corrected for media absorbance, then normalized to initial density readings to determine percent net growth. IC50 values are determined from graphs of percent net growth as a function of compound concentration. Percent net growth is calculated as (Cell + Drug A490 - Initial A490/Cell + Drug Vehicle A490 - Initial A490) x 100%.

H1299 lung carcinoma = assay: as above; format: cell-based; details: Homo sapiens, NCI-H1299, 72 h; 3-day exposure, H1299 cells; read-out: IC50 values (average ± S.D.) H1299
Source text: as §1, §2
(§5) The H1299 lung, HCT-116 colon, and PC-3 prostate carcinoma cell lines, and U2OS osteosarcoma cell line were obtained from the American Type Culture Collection (ATCC) and used between passages 4-20 following thawing. H1299 and HCT-116 cells were maintained in RPMI 1640 containing 10% FBS, 100 units/mL penicillin and 100 µg/mL streptomycin; PC-3 cells were maintained in Kahn's Modification containing 10% FBS, 100 units/mL penicillin and 100 µg/mL streptomycin; and U2OS cells were maintained in DMEM containing 10% FBS, 100 units/mL penicillin and 100 µg/mL streptomycin.
as §4

PC-3 prostate carcinoma = assay: as above; format: cell-based; details: Homo sapiens, 72 h; 3-day exposure, PC-3 cells; read-out: IC50 values (average ± S.D.) PC-3
Source text: as §1, §2, §5, §4

HCT-116 colon carcinoma = assay: as above; format: cell-based; details: Homo sapiens, 72 h; 3-day exposure, HCT-116 cells; read-out: IC50 values (average ± S.D.) HCT-116
Source text: as §1, §2, §5, §4

U2OS osteosarcoma = assay: as above; format: cell-based; details: Homo sapiens, 72 h; 3-day exposure, U2OS cells; read-out: IC50 values (average ± S.D.) U2OS
Source text: as §1, §2, §5, §4

[3] = tested on: MDA-MB-435 human breast carcinoma; assay: as above; format: cell-based; details: Homo sapiens, 72 h; 3-day exposure, MDA-MB-435 cells; read-out: IC50 values (average ± S.D.) MDA-MB-435
Source text: as §1, §2, §3, §4

**Q.** How did the Dead/Total [1] turn out when `COc1cccc2c1C(=O)c1c(O)c3c(c(O)c1C2=O)C[C@@](O)(C(=O)CO)C[C@@H]3O[C@H]1C[C@H](N)[C@H](O)[C@H](C)O1` [doxorubicin, reference compound] was run?
**A.** 0/8

**Q.** What about the “Δ MTV” value [1] of the same molecule?
**A.** 82 mm^3

**Q.** And the “%T/C” value ([1]; * = p<0.05)?
**A.** 46* %

**Q.** And the IC50 [2]?
**A.** 500 ± 160 nM

**Q.** What about the IC50 (H1299 lung carcinoma) of the same molecule?
**A.** 430 ± 290 nM

**Q.** And the IC50 (PC-3 prostate carcinoma)?
**A.** 330 ± 120 nM

**Q.** And the IC50 (HCT-116 colon carcinoma)?
**A.** 80 ± 60 nM

**Q.** And the IC50 (U2OS osteosarcoma)?
**A.** 130 ± 30 nM

**Q.** What about the IC50 [3] of the same molecule?
**A.** 400 ± 10 nM

**Q.** What does the source list for `CO[C@@H](C(=O)N[C@H]1CC[C@@H](OC(=O)OCc2ccccc2)CNC1=O)[C@H](O)[C@@H](O)[C@H](O)/C=C/C(C)(C)C` [Ex. 4, (2R, 3R, 4S, 5R, 6E)-3,4,5-trihydroxy-2-methoxy-8,8-dimethyl-N-[(3S, 6R)-hexahydro-2-oxo-6-([[phenylmethoxy]carbonyl]oxy)-2H-azepin-3-yl]non-6-enonamide]?
**A.** IC50 [2]: 158 ± 16 nM; IC50 (H1299 lung carcinoma): 170 ± 130 nM; IC50 (PC-3 prostate carcinoma): 80 nM; IC50 (HCT-116 colon carcinoma): 80 ± 10 nM; IC50 (U2OS osteosarcoma): 250 ± 140 nM; IC50 [3]: 130 ± 70 nM
